Assay results published in patent publication US11000491B2, “Amino-aryl-benzamide compounds and methods of use thereof” (HEPANOVA, INC., priority 2017, dated 2021).
Where two headings read alike, the source gives them in different places.

How the values were obtained:
Type in all cases: cell-based
Huh7 cells = experiment: LD content in Huh7 cells pre-treated with insulin, Oil-Red-O staining, absorbance OD 540 nm; conditions: procedure of Example 3, read-out: LD content inhibition (EC50)
Experimental: FIG. 6. […] Spectrophotometric absorbance of untreated or HPN-01-treated Huh7 cells pre-incubated with 1 mM insulin is shown. LD contents were stained using Oil Red O, and measured by determining spectrophotometer absorbance under OD 540 nm.
Huh7 cells were mock treated or pre-treated with 1 mM insulin, and subsequently treated with indicated amounted of HPN-01.
The ability of each HPN-01 derivative obtained from the synthesis methods described above, to inhibit LD formation in hepatocytes, was tested using the procedure outlined in Example 3. The results of this analysis are shown below in Table 6 (second column).

SREBP-1 = SREBP-1 expression in cultured primary human hepatocytes; conditions: procedure of Example 6, read-out: SREBP-1 mRNA inhibition (EC50)
Experimental: (§1) FIG. 9. Effects of HPN-01 on the expression of SREBP-1 (master regulator of hepatic glucose metabolism and fatty acid synthesis) and SREBP-2 (master regulator of cholesterol homeostasis in cells) in cultured primary human hepatocytes.
(§2) Cultured primary human hepatocytes were treated with various concentrations of HPN-01, and the expression levels of SREBP-1 (master regulator of hepatic glucose metabolism and fatty acid synthesis) and SREBP-2 (master regulator of cholesterol homeostasis in cells) were subsequently determined.
(§3) The ability of each HPN-01 derivative obtained from the synthesis methods described above, to inhibit SREBP-1 and SREBP-2 mRNA expression in primary hepatocytes, was tested using the procedure outlined in Example 6. The results of this analysis are shown in Table 6 (third and fourth columns).

SREBP-2 = SREBP-2 expression in cultured primary human hepatocytes; conditions: procedure of Example 6, read-out: SREBP-2 mRNA inhibition (EC50)
Experimental: as §1, §2, §3

[1] = Homo sapiens, Huh-7, Huh7 cells

Structure (SMILES)	EC50 (Huh7 cells; [1]) [nM]	EC50 (SREBP-1; Homo sapiens, Hepatocyte) [nM]	EC50 (SREBP-2; Homo sapiens, Hepatocyte) [nM]	EC50 (Huh7 cells; Huh7 cells) [nM]	EC50 (SREBP-1) [nM]	EC50 (SREBP-2) [nM]	EC50 (SREBP-1; Hepatocyte) [nM]	EC50 (SREBP-2; Hepatocyte) [nM]
NC(=O)c1cc(C#CCOC(=O)c2ccc[nH]2)cc(-c2ccc(S(N)(=O)=O)cc2)c1N [HPN-01222, 3-(6-amino-5-carbamoyl-4′-sulfamoyl-[1,1′-biphenyl]-3-yl)prop-2-yn-1-yl 1H-pyrrole-2-carboxylate]	1360	7310	12800					
Nc1c(C(=O)Nc2ccc(F)c(F)c2)cc(-c2ccc(Cl)cc2)cc1-c1ccc(S(N)(=O)=O)cc1 [HPN-01615, 4′-amino-4-chloro-N-(3,4-difluorophenyl)-4″-sulfamoyl-[1,1′:3′,1″-terphenyl]-5′-carboxamide]	1150	6690	11700					
Cc1cccc(NC(=O)/C=C/c2cc(C(N)=O)c(N)c(-c3ccc(S(N)(=O)=O)cc3)c2)c1 [HPN-01127, (E)-2-amino-5-(3-oxo-3-(m-tolylamino)prop-1-en-1-yl)-4═-sulfamoyl-[1,1′-biphenyl]-3-carboxamide]				330	1170	3370		
NC(=O)c1cc(-c2ccc(Cl)nc2)cc(-c2ccc(S(N)(=O)=O)cc2)c1N [HPN-01307, 2-amino-5-(6-chloropyridin-3-yl)-4′-sulfamoyl-[1,1′-biphenyl]-3-carboxamide]	1360	5680	4590					
NC(=O)Nc1ccc(-c2cc(-c3ccc(Cl)cc3)cc(C(N)=O)c2NC(=O)CO)cc1 [HPN-01506, 4-chloro-4′-(2-hydroxyacetamido)-4″-ureido-[1,1′:3′,1″-terphenyl]-5′-carboxamide]	6480	7310	17100					
Nc1c(C(=O)NCc2ccc[nH]2)cc(-c2ccc(Cl)cc2)cc1-c1ccc(S(N)(=O)=O)cc1 [HPN-01629, N-((1H-pyrrol-2-yl)methyl)-4′-amino-4-chloro-4″-sulfamoyl-[1,1′:3′,1″-terphenyl]-5′-carboxamide]	1370	2000	8600					
NC(=O)c1cc(C#Cc2cccc(Br)c2)cc(-c2ccc(S(N)(=O)=O)cc2)c1N [HPN-01208, 2-amino-5-((3-bromophenyl)ethynyl)-4′-sulfamoyl-[1,1′-biphenyl]-3-carboxamide]	1690	3250	5770					
C[Si](C)(C)C#Cc1cc(C(N)=O)c(N)c(-c2ccc(S(N)(=O)=O)cc2)c1 [HPN-01209, 2-amino-4′-sulfamoyl-5-((trimethylsilyl)ethynyl)-[1,1′-biphenyl]-3-carboxamide]	820						2330	1980

Further lines, with some results ahead:

EC50 (Huh7 cells; [1]) [nM]	Structure (SMILES)	EC50 (SREBP-1; Homo sapiens, Hepatocyte) [nM]	EC50 (SREBP-2; Homo sapiens, Hepatocyte) [nM]	EC50 (Huh7 cells; Huh7 cells) [nM]	EC50 (SREBP-1) [nM]	EC50 (SREBP-2) [nM]	EC50 (SREBP-1; Hepatocyte) [nM]	EC50 (SREBP-2; Hepatocyte) [nM]
320	Nc1c(C(=O)Nc2ccc(O)c(O)c2)cc(-c2ccc(Cl)cc2)cc1-c1ccc(S(N)(=O)=O)cc1 [HPN-01617, 4′-amino-4-chloro-N-(3,4-dihydroxyphenyl)-4″-sulfamoyl-[1,1′:3′,1″-terphenyl]-5′-carboxamide]	1880	3680					
1090	CC(=O)Oc1ccc(/C=C/c2cc(C(N)=O)c(N)c(-c3ccc(S(N)(=O)=O)cc3)c2)cc1 [HPN-01105, (E)-4-(2-(6-amino-5-carbamoyl-4′-sulfamoyl-[1,1′-biphenyl]-3-yl)vinyl)phenyl acetate]	3240	5260					
630	COC(=O)c1cccc(Nc2cc(C(N)=O)c(N)c(-c3ccc(S(N)(=O)=O)cc3)c2)c1 [HPN-01319, methyl 3-((6-amino-5-carbamoyl-4′-sulfamoyl-[1,1′-biphenyl]-3-yl)amino)benzoate]	4800	3420					
460	NC(=O)c1cc(/C=C/c2cccc(Cl)c2)cc(-c2ccc(S(N)(=O)=O)cc2)c1N [HPN-01102, (E)-2-amino-5-(3-chlorostyryl)-4′-sulfamoyl-[1,1′-biphenyl]-3-carboxamide]	1610	3370					
420	NC(=O)c1cc(-c2ccc(Cl)cc2)cc(-c2ccc(N3CC=NC3=O)cc2)c1N [HPN-01420, 4′-amino-4-chloro-4″-(2-oxo-2,5-dihydro-1H-imidazol-1-yl)-[1,1′:3′,1″-terphenyl]-5′-carboxamide]	2140	2370					
